Test results from patent publication US20060166866A1, “Cell adhesion inhibitors” (Biogen, Inc., a Massachusetts corporation, priority 1995, published 2006).

What follows are molecules tested against T1, VLA4 (Homo sapiens, UniProt P05556+P13612) (assay: Inhibition of VLA4-dependent adhesion to BSA-CS1 (fluorescently labelled Ramos cells)). Conditions: binding of BCECF-labelled Ramos cells to CS1 peptide-coated wells, 2 mM MnCl2, 30 minutes at room temperature.
T1 construct: endogenous in cells; host or cells: Ramos cells
T1 sequence (P13612 34-1032): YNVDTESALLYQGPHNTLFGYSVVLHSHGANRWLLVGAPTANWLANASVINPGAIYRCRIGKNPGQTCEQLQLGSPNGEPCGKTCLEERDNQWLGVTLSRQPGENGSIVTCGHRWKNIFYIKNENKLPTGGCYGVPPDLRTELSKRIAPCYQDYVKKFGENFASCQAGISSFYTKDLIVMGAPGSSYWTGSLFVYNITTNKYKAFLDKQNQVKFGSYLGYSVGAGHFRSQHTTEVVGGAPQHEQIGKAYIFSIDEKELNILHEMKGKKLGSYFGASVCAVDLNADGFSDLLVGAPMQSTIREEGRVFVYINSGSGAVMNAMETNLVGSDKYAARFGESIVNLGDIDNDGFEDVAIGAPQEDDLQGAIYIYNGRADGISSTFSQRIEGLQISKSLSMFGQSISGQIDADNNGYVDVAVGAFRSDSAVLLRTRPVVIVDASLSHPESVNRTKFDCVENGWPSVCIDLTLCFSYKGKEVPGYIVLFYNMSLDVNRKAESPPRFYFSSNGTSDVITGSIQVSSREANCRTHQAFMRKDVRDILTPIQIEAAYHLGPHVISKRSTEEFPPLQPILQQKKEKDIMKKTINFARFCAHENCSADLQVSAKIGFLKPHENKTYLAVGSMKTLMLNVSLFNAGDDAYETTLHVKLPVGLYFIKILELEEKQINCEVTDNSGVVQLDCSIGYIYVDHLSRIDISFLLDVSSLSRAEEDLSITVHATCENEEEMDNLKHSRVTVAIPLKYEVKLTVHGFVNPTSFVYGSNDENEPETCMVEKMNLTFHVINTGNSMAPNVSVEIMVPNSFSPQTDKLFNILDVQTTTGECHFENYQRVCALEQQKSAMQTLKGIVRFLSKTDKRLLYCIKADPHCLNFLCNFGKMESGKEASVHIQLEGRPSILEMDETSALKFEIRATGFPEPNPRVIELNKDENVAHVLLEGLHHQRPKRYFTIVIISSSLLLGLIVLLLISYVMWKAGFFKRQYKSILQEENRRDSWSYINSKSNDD
T1 sequence (P05556 21-798): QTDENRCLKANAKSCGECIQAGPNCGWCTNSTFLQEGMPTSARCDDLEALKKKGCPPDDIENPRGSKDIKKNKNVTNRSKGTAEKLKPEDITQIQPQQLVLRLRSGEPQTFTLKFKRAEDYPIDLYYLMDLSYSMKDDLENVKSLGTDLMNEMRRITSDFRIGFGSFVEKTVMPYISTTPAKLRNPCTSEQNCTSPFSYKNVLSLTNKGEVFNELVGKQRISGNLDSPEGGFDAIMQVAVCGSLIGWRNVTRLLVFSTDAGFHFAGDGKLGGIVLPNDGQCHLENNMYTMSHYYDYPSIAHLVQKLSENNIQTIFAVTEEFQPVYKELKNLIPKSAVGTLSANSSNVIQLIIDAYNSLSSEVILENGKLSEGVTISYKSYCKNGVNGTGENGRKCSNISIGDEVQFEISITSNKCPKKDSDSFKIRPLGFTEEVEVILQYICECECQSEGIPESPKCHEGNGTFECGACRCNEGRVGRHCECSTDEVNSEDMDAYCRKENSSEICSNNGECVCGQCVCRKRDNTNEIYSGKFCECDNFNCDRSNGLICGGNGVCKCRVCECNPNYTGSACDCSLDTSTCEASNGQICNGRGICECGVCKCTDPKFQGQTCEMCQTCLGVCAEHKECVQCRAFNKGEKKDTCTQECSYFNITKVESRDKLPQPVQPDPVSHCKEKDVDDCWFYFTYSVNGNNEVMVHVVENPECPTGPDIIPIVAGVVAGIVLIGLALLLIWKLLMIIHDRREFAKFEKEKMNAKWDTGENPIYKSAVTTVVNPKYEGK
Format: cell-based
Description: For example, the cell adhesion inhibitory activity of these compounds may be measured by determining the concentration of inhibitor required to block the binding of VLA-4-expressing cells to fibronectin- or CS1-coated plates. In this assay microtiter wells are coated with either fibronectin (containing the CS-1 sequence) or CS-1. If CS-1 is used, it must be conjugated to a carrier protein, such as bovine serum albumin, in order to bind to the wells. Once the wells are coated, varying concentrations of the test compound are then added together with appropriately labelled, VLA-4-expressing cells. Alternatively, the test compound may be added first and allowed to incubate with the coated wells prior to the addition of the cells. The cells are allowed to incubate in the wells format least 30 minutes. Following incubation, the wells are emptied and washed. Inhibition of binding is measured by quantitating the fluorescence or radioactivity bound to the plate for each of the various concentrations of test compound, as well as for controls containing no test compound.
VLA-4-expressing cells that may be utilized in this assay include Ramos cells, Jurkat cells, A375 melanoma cells, as well as human peripheral blood lymophocytes (PBLs). The cells used in this assay may be fluorescently or radioactively labelled.
This assay was used to assess the potency of VLA4-directed inhibitory compounds of this invention.
1. Conjugation of CS1 to BSA
We dissolved BSA-SMCC (Pierce Chemical, Rockford, Ill.; Catalog,# 77115) in H2O at a concentration of 10 mg/mL. [SEQ ID NO:4]:Cys-Tyr-Asp-Glu-Leu-Pro-Gln-Leu-Val-Thr-Leu-Pro-His-Pro-Asn-Leu-His-GIy-Pro-Glu-Ile-Leu-Asp-Val-Pro-Ser-Thr (“Cys-Tyr-CS1 peptide”), which we synthesized by conventional solid phase chemistry and purified by HPLC, was dissolved in 10 mM HEPES pH 5, 50 mM NaCl and 0.1 mM EDTA also at a concentration of 10 mg/mL. We then mixed 500 μL of BSA-SMCC, 250 μL of Cys-Tyr-CS1 peptide and 75 μL of […] and allowed the conjugation reaction to proceed for 30 minutes. We stopped the reaction by adding 1 μL of beta-mercaptoethanol. Samples were analyzed for cross-linking by SDS-PAGE. This reaction produced multiple molecules of the Cys-Tyr-CS1 peptide conjugate to each BSA molecule.
2. Preparation of Plates for Adhesion Assay
We coated the wells of a Linbro titertek polystyrene 96-well flat bottom plate (Flow Laboratories, Maclean, Va.; catalog #76-231-05) with 100 μL of the above-described BSA-CS1 solution diluted to 1 μg/mL in 0.05 M NaHCO3 (15 mM NaHCO3, 35 mM Na2CO3) pH 9.2. Some wells were not coated with CS1 in order to assess non-specific cell binding (NSB). The plate was then incubated overnight at 4° C.
Following this incubation, the contents of the wells were removed by inverting and blotting the plate. All of the wells were then blocked with 100 μL of 1% BSA in PBS, 0.02% NaN3, for a minimum of one hour at room temperature.
3. Preparation of Fluorescently Labelled Ramos Cells
Ramos cells are grown, maintained and labelled in RPMI 1640 culture medium containing 1% BSA. Just prior to running the assay, we added 2′,7′-bis-(2-carboxyethyl)-5 (and -6) carboxyfluorescein acetoxymethyl ester (“BCECF-AM”; Molecular Probes Inc., Eugene, Oreg.; catalog #B-1150) to a final concnetration of 2 μM to a culture of Ramos cells (4×10^6 cells/mL). We incubated the cells for 20 minutes at 37° C.
Following labelling, the cells were washed twice in assay buffer (24 mM TRIS, 137 mM NaCl, 2.7 mM KCl, pH 7.4, containing 0.1% BSA and 2 mM glucose) to remove any cations originating from the culture medium. The cells were then resuspended in assay buffer to 4×10^6 cells/mL and 2 mM MnCl2 was added to upregulate VLA4 on the surface of the cells.
Immediately prior to running the assay, we removed the BSA blocking solution from the 96-well plates and washed the wells with 100 μL of assay buffer. We then added to each well 25 μL of test compound at 2× the final concentration and 25 μL of the labelled Ramos cells. […]
In the case of `COc1ccc(C(CC(=O)O)NC(=O)C(CCSC)NC(=O)Cc2ccc(NC(=O)Nc3ccccn3)cc2)cc1OC` (stereo not shown) [BIO-1347], the IC50 is reported as under 50 nM.
`COC(=O)c1ccc(C(CC(=O)O)NC(=O)C(CC(C)C)NC(=O)Cc2ccc(NC(=O)Nc3ccccc3)cc2)cc1` (stereo not shown) [BIO-1388] was tested, and the IC50 was under 50 nM.
With `COc1ccc(C(CC(=O)O)NC(=O)C(CC(C)C)NC(=O)Cc2ccc(NC(=O)Nc3ccccc3F)cc2)cc1OC` (stereo not shown) [BIO-1525] the IC50 was 50 to 10000 nM.
`Cc1ccccc1NC(=O)Nc1ccc(CC(=O)NC(CSCCN(C)C)C(=O)NC(CC(=O)O)c2ccc3c(c2)OCO3)cc1` (stereo not shown) [BIO-1345] was tested, and the IC50 was under 50 nM.
With `CC(C)CC(NC(=O)Cc1ccc(NC(=O)NC(C)(C)C)cc1)C(=O)NC(CC(=O)O)c1ccc2c(c1)OCO2` (stereo not shown) [BIO-1076] the IC50 was 50 to 10000 nM.
`C=CCC(CC(=O)O)NC(=O)C(CC(C)C)NC(=O)Cc1ccc(NC(=O)Nc2ccccc2C)cc1` (stereo not shown) [BIO-1515] gave an IC50 of under 50 nM.
Molecule `CC(C)CC(NC(=O)CC(c1ccccc1)c1ccccc1)C(=O)NC(CC(=O)O)c1ccccc1` (stereo not shown) [BIO-1099] has an IC50 of over 10000 nM.
`CC(C)CC(NC(=O)Nc1ccc([N+](=O)[O-])cc1)C(=O)NC(CC(=O)O)c1ccccc1` (stereo not shown) [BIO-1108] gave an IC50 of over 10000 nM.
`CC(C)CC(NC(=O)Cc1ccc(NC(=O)c2c[nH]c3ccccc23)cc1)C(=O)NC(CC(=O)O)c1ccc2c(c1)OCO2` (stereo not shown) [BIO-1655] was tested, and the IC50 was 50 to 10000 nM.
`COC(=O)NCCCCC(NC(=O)Cc1ccc(NC(=O)Nc2ccccc2C)cc1)C(=O)NC(CC(=O)O)c1ccc2c(c1)OCO2` (stereo not shown) [BIO-1272] gave an IC50 of under 50 nM.
Molecule `Cc1ccccc1NC(=O)Nc1ccc(CC(=O)NC(CC(C)C)C(=O)NC(CC(=O)O)CN2CCOCC2)cc1` (stereo not shown) [BIO-1721] has an IC50 of 50 to 10000 nM.
With `CC(C)CNC(=O)C(CC(=O)O)NC(=O)C(CC(C)C)NC(=O)Cc1ccc(NC(=O)Nc2ccccc2)cc1` (stereo not shown) [BIO-1186] the IC50 was 50 to 10000 nM.
`Cc1ccccc1NC(=O)Nc1ccc(CC(=O)NC(CC(C)C)C(=O)NC(CC(=O)O)c2ccc3c(c2)CCO3)cc1` (stereo not shown) [BIO-1360] gave an IC50 of under 50 nM.
With `Cc1ccccc1NC(=O)Nc1ccc(CC(=O)NC(CSCCCO)C(=O)NC(CC(=O)O)c2ccc3c(c2)OCO3)cc1` (stereo not shown) [BIO-1246] the IC50 was under 50 nM.
Work on `C=CCNC(=O)Nc1ccc(CC(=O)NC(CC(C)C)C(=O)NC(CC(=O)O)c2ccc3c(c2)OCO3)cc1` (stereo not shown) [BIO-1475] yielded an IC50 of 50 to 10000 nM.
In the case of `COc1ccc(C(CC(=O)O)NC(=O)C(CC(C)C)NC(=O)Cc2ccc(NC(=O)Nc3ccccn3)cc2)cc1` (stereo not shown) [BIO-1194], the IC50 is reported as under 50 nM.
In the case of `CC(C)CC(NC(=O)Cc1ccc(NC(=O)n2ccc3ccccc32)cc1)C(=O)NC(CC(=O)O)c1ccc2c(c1)OCO2` (stereo not shown) [BIO-1327], the IC50 is reported as 50 to 10000 nM.
Work on `CC(C)CC(NC(=O)Cc1ccc(Nc2nc3ccccc3o2)cc1)C(=O)NC(CC(=O)O)c1ccc2c(c1)OCO2` (stereo not shown) [BIO-1396] yielded an IC50 of 50 to 10000 nM.
`CC(C)CC(NC(=O)Cc1ccc(NC(=S)Nc2ccccc2)cc1)C(=O)NC(CC(=O)O)c1ccc2c(c1)OCO2` (stereo not shown) [BIO-1358] showed an IC50 of 50 to 10000 nM.
`CSCCC(NC(=O)Cc1ccc(NC(=O)Nc2ncccc2C)cc1)C(=O)NC(CC(=O)O)c1ccc2c(c1)OCO2` (stereo not shown) [BIO-1429] gave an IC50 of 50 to 10000 nM.
With `COc1ccc(C(CC(=O)O)NC(=O)C(CC(C)C)NC(=O)Cc2ccc(NC(=O)Nc3ccccc3C)cc2)cc1OC` (stereo not shown) [BIO-1212] the IC50 was under 50 nM.
`CC(C)CC(NC(=O)Cc1ccc(NC(=O)Nc2ccccc2)cc1)C(=O)NC(CC(=O)O)c1ccc2c(c1)OCO2` (stereo not shown) [BIO-1128] was tested, and the IC50 was 50 to 10000 nM.
Molecule `Cc1ccc(NC(=O)Nc2ccc(CC(=O)NC(CC(C)C)C(=O)NC(CC(=O)O)c3ccc4c(c3)OCO4)cc2)cc1` (stereo not shown) [BIO-1067] has an IC50 of 50 to 10000 nM.
Molecule `CC(C)CC(NC(=O)Cc1ccc(NC(=O)Nc2ccccc2)cc1)C(=O)NC(CC(=O)O)c1ccc(F)c(F)c1` (stereo not shown) [BIO-1195] has an IC50 of under 50 nM.
For `Cc1ccccc1NC(=O)Nc1ccc(CC(=O)NC(CC(C)C)C(=O)NCCC(=O)O)cc1` (stereo not shown) [BIO-1594], the IC50 was 50 to 10000 nM.
`CC(C)CC(NC(=O)Cc1ccc(NC(=O)c2cc3ccccc3[nH]2)cc1)C(=O)NCCC(=O)O` (stereo not shown) [BIO-1648] was tested, and the IC50 was 50 to 10000 nM.
With `COc1cccc(C(CC(=O)O)NC(=O)C(CC(C)C)NC(=O)Cc2ccccc2)c1` (stereo not shown) [BIO-1160] the IC50 was 50 to 10000 nM.
`Cc1ccccc1NC(=O)Nc1ccc(CC(=O)NC(CC(C)C)C(=O)NC(CC(=O)O)c2ccccc2)cc1` (stereo not shown) [BIO-1197] was tested, and the IC50 was under 50 nM.
With `Cc1ccccc1NC(=O)Nc1ccc(CC(=O)NC(CC(C)C)C(=O)NC(CCc2ccccc2)CC(=O)O)cc1` (stereo not shown) [BIO-1400] the IC50 was under 50 nM.
`COC(=O)c1ccc(C(CC(=O)O)NC(=O)C(CCSC)NC(=O)Cc2ccc(NC(=O)Nc3ccccc3C)cc2)cc1` (stereo not shown) [BIO-1361] gave an IC50 of under 50 nM.
For `O=C(O)CC(NC(=O)C(CSCc1ccccc1)NC(=O)Cc1ccc(NC(=O)Nc2ccccc2)cc1)c1ccccc1` (stereo not shown) [BIO-1136], the IC50 was 50 to 10000 nM.
In the case of `CC(C)CC(NC(=O)Cc1ccc(NC(=O)c2ccc[nH]2)cc1)C(=O)NC(CC(=O)O)c1ccc2c(c1)OCO2` (stereo not shown) [BIO-1474], the IC50 is reported as 50 to 10000 nM.
`Cc1ccccc1NC(=O)Nc1ccc(CC(=O)NC(CC(C)C)C(=O)NC(C)CC(=O)O)cc1` (stereo not shown) [BIO-1536] gave an IC50 of under 50 nM.
`COc1ccc(C(CC(=O)O)NC(=O)C(CC(C)C)NC(=O)Cc2ccc(NC(=O)Nc3ccc(F)cc3)cc2)cc1OC` (stereo not shown) [BIO-1526] showed an IC50 of 50 to 10000 nM.
Molecule `COC(=O)NCCCCC(NC(=O)Cc1ccc(NC(=O)Nc2ncccc2C)cc1)C(=O)NC(CC(=O)O)c1ccc(OC)c(OC)c1` (stereo not shown) [BIO-1311] has an IC50 of 50 to 10000 nM.
`C#CC(CC(=O)O)NC(=O)C(CC(C)C)NC(=O)Cc1ccc(NC(=O)Nc2ccccc2C)cc1` (stereo not shown) [BIO-1490] showed an IC50 of under 50 nM.
`CSCCC(NC(=O)Cc1ccc(NC(=O)Nc2ccccn2)cc1)C(=O)NC(CC(=O)O)c1ccc2c(c1)OCO2` (stereo not shown) [BIO-1393] gave an IC50 of under 50 nM.
